Experimental data from paper PMC8144490, “Synthesis and Cytotoxic Activity of Novel Indole Derivatives and Their in silico Screening on Spike Glycoprotein of SARS-CoV-2” (Frontiers in Molecular Biosciences, 2021).
pIC50: −log10 of the molar value. Where two headings read alike, the source gives them in different places.

What was measured:
Assay type in all cases: cell-based
[1] = system: HepG2 (Liver) cancer cell line; assay: Cytotoxic activity (United States NCI protocol), HepG2; details: Homo sapiens
Method: (§1) The cytotoxicity experiment was performed according to the United States NCI protocol, previously reported method. A detailed experimental procedure was given in Supplementary Material ([Premnath et al., 2015]).
(§2) The newly prepared compounds 1a–1j are examined for their cytotoxic activity according to the United States NCI protocol, which was a previously reported method ([Chadha and Silakari, 2017]). The 50% growth inhibition (GI50), tumor growth inhibition (TGI), and lethal concentration (LC50) values were determined. […] Doxorubicin was used as a standard drug. None of the tested derivatives had shown significant activity toward the cancer cell lines. The compounds were also evaluated for their possible cytotoxicity in human embryonic kidney cells (HEK-293), lung cells (MRC-5), and liver cells (LO2) by employing MTT assay. […] The results of cytotoxic screening of compounds (1a–1j) are shown in Table 2, and in vitro cytotoxicity of indole derivatives (1a–1j) on normal cells are shown in Table 3.

[2] = system: MCF-7 (Breast) cancer cell line; assay: Cytotoxic activity (United States NCI protocol), MCF-7; details: Homo sapiens; for GI50: 50% growth inhibition; for IC (TGI): tumor growth inhibition
Method: as §1, §2

[3] = system: HeLa (Cervical) cancer cell line; assay: Cytotoxic activity (United States NCI protocol), HeLa; details: Homo sapiens; for IC (TGI): read-out: TGI
Method: as §1, §2

lung cells (MRC5) = assay: In vitro cytotoxicity on normal cells, MTT assay, MRC5; details: Homo sapiens
Method: as §2
(§3) None of the tested derivatives had shown significant activity toward the cancer cell lines. The compounds were also evaluated for the possible cytotoxicity in human embryonic kidney cells (HEK-293), lung cells (MRC5), and liver cells (LO2) by employing MTT assay.

[4] = system: human embryonic kidney cells (HEK-293); assay: In vitro cytotoxicity on normal cells, MTT assay, HEK-293; details: HEK293, HEK-293 normal kidney cells
Method: as §2, §3

liver cells (LO2) = assay: In vitro cytotoxicity on normal cells, MTT assay, LO2
Method: as §2, §3

[5] = HepG2, tumor growth inhibition, read-out: TGI
[6] = MCF7, MCF-7, lethal concentration, read-out: LC50 (the source's name)
[7] = 50% growth inhibition, read-out: GI50
[8] = lethal concentration, read-out: LC50 (the source's name)
[9] = HepG2, lethal concentration, read-out: LC50

Row | Compound | GI50 ([1]; HepG2) [µM] | IC (TGI) [1, 5] [µM] | GI50 ([2]; MCF7, MCF-7) [µM] | CC50 [2, 6] [µM] | IC (TGI) ([2]; MCF7, MCF-7) [µM] | GI50 [3, 7] [µM] | CC50 [3, 8] [µM] | IC (TGI) ([3]; tumor growth inhibition) [µM] | LC50 (NCI lethal concentration 50%) [1, 9] [µM] | pIC50 (lung cells (MRC5)) | pIC50 [4] | pIC50 (liver cells (LO2)) | LC50 (NCI lethal concentration 50%) ([1]; HepG2, read-out: LC50) [µM] | IC (TGI) ([1]; HepG2, read-out: TGI) [µM] | CC50 ([2]; MCF7, read-out: LC50) [µM] | GI50 [3] [µM] | CC50 ([3]; read-out: LC50) [µM] | IC (TGI) [3] [µM]
1 | COc1cccc2c1C(=O)c1c(O)c3c(c(O)c1C2=O)C[C@@](O)(C(=O)CO)C[C@@H]3O[C@H]1C[C@H](N)[C@H](O)[C@H](C)O1 [Doxorubicin, reference compound] | 0.01 | 0.13 | 0.02 | 0.74 | 0.21 | 0.05 | 0.88 | 0.41 | – | – | – | – | – | – | – | – | – | –
2 | COc1cc(C(N/N=C/c2ccco2)n2ccc3ccccc32)ccc1O (centres unmarked) [Compound 1g] | 48 | 61.3 | 34 | 30.5 | 67.4 | 37.9 | 58.9 | 51.9 | 59.3 | 4.20 | 4.23 | 4.15 | – | – | – | – | – | –
3 | C(=N\NCn1ccc2ccccc21)/c1ccco1 [Compound 1j] | 40.3 | 45.3 | 56 | 78.6 | 49.3 | 2.3 | 48.3 | 58.3 | 66.8 | 4.12 | 4.28 | 4.15 | – | – | – | – | – | –
4 | Clc1ccc(C(N/N=C/c2ccco2)n2ccc3ccccc32)cc1 (centres unmarked) [Compound 1d] | 1 | 0.25 | 0.89 | 65 | 9.3 | 8.9 | 0.5 | 6.8 | 54 | 4.25 | 4.10 | 4.18 | – | – | – | – | – | –
5 | O=[N+]([O-])c1cccc(C(N/N=C/c2ccco2)n2ccc3ccccc32)c1 (centres unmarked) [Compound 1b] | 42.2 | 23.1 | 46.1 | > 100 | 85.1 | 51 | > 100 | 89.2 | 56.8 | 4.17 | 4.21 | 4.14 | – | – | – | – | – | –
6 | CN(C)c1ccc(C(N/N=C/c2ccco2)n2ccc3ccccc32)cc1 (centres unmarked) [Compound 1h] | 21.3 | 41 | 12.9 | 10.3 | 45.3 | 52.9 | > 100 | 81.3 | 72.1 | 4.18 | 4.17 | 4.23 | – | – | – | – | – | –
7 | Oc1ccc(C(NN=Cc2ccco2)n2ccc3ccccc32)cc1 (centres unmarked) [Compound 1c] | 36.3 | – | – | – | – | – | – | – | – | 4.06 | 4.09 | 4.06 | 0.9 | 65.3 | 0.55 | 41.3 | 0.5 | 87.2
8 | C(=N\NC(c1ccccc1)n1ccc2ccccc21)/c1ccco1 (centres unmarked) [Compound 1a] | 43.2 | – | – | – | – | – | – | – | – | 4.12 | 4.15 | 4.17 | > 100 | 78.3 | > 100 | – | 100 | –
9 | COc1ccc(C(N/N=C/c2ccco2)n2ccc3ccccc32)cc1 (centres unmarked) [Compound 1e] | 15.9 | 38.2 | 24.4 | 66.3 | 59.3 | 34.2 | > 100 | 72.1 | 44.8 | 4.14 | 4.24 | 4.25 | – | – | – | – | – | –
10 | Oc1ccccc1C(N/N=C/c1ccco1)n1ccc2ccccc21 (centres unmarked) [Compound 1f] | 29.1 | 46.8 | 18.6 | 42.3 | 41.8 | 21.6 | 77.4 | 54.7 | 57.5 | 4.29 | 4.18 | 4.17 | – | – | – | – | – | –
